Here are results for two molecules from article PMC10587159, “Biosynthesis and engineering of the nonribosomal peptides with a C-terminal putrescine” (Nature Communications, 2023).

“Also recorded” adds a separate entry of the source. Non-standard residues stand in square brackets, D forms with d. Residues, ends and D or L forms follow the SMILES beside them. *: point of attachment. Myristoyl = CCCCCCCCCCCCCC(=O)*; NH(CH2)4NH2 = NCCCCN*

Series [1] is described as follows: Solubility in solvents (observation). The following applies: observation in water, methanol, acetonitrile, DMSO. Type of series: physicochemical. The source says:
Putrescine is also a precursor of some specialized compounds, such as industrial polyamide nylon 4,6[33] and siderophore alcaligin[55]. To clarify the function of the Put moiety of glidonins, we synthesized lipopeptide 10a without the Put group.

Series [2] concerns S. brevitalea DSM 7029 wild type. Nature of the series: Growth curve of DSM 7029 wild type with compounds (Bioscreen C). Type of series: cell-based, Schlegelella brevitalea DSM 7029. The settings on record: CYMG medium. As to the method: (§1) The growth curve was tested by Bioscreen C (Labsystems, Finland) as follow. Overnight culture was inoculated into 400 μL fresh CYMG medium in the ratio of 1:100 (the concentration of compounds was 0.1 μg/μL) and shook in normal speed. The OD600 value was gained in every hour for 42 h in total. Biofilm formation was measured at 18 h and 36 h respectively, as reported previously. In brief, the free-floating cells were removed, and the microtitre plate was washed with PBS (pH 7.4) after incubation for 18 h and 36 h. The biofilm was stained by adding 200 µL of crystal violet (0.1%) solution. Crystal violet solution was removed after 15 min and 200 µL of ethanol (95%) was added. The absorbance at OD600 was read using a microplate reader (Infinite M200, Tecan, Männedorf, Switzerland). Meanwhile, free-floating cells were used to test the secretion of pigment. The bacteria were removed and the supernatant was measured at OD600.

Series [3] has the same test system. Nature of the series: Biofilm formation of DSM 7029 wild type with compounds (crystal violet). The settings on record: crystal violet staining. Type of series: cell-based, Schlegelella brevitalea DSM 7029. The procedure: as §1
For another series, the system named is native host DSM 7029. Put plainly: Inhibition zone test on the native host DSM 7029. Type of series: cell-based, Schlegelella brevitalea DSM 7029. The following applies: same method as for the seven tested strains. The source says: The two human acute lymphoblastic leukemia cells K562 and Kasumi, two human breast adenocarcinoma cells MCF7 and MDA-MB-231, human hepatoma cell HepG-2, human lung adenocarcinoma cell A549, human gastric cancer cell SGC-7901, human colon cancer cell HCT-116, human ovarian cancer cell line SKOV3, or human lung epithelial normal cell 2B were obtained from Beyotime Biotechnology and utilized to test the cytotoxicity of compounds by MTT assays as previous study. The anti-inflammatory effect of the compounds was detected by the influence on the increase in the level of nitric oxide caused by lipopolysaccharide (LPS) based on the classic Griess method. RAW 264.7 cells (Shanghai Institutes for Biological Science) were seeded in 96-well plates and incubated for 24 h. Then, cells were treated with compounds 29, 29a, 31, and 31a (0-80 μM) for 30 min, followed by co-treatment with LPS ([…]) for another 24 h. The Nitric Oxide assay kit with Griess reagents (Beyotime, Lot: S0021, Shanghai, China) was used to examine cellular supernatant nitrite accumulation, which represents cellular NO levels. The OD value of 540 nm absorbance was detected with a microplate reader. Their authentication in the laboratory was performed regularly based on morphology and gene/protein expression. […]

In series [4] the test system is human breast adenocarcinoma cells MDA-MB-231. Nature of the series: cells. Type of series: cell-based. The settings on record: 24 h. The text has this: (§2) The two human acute lymphoblastic leukemia cells K562 and Kasumi, two human breast adenocarcinoma cells MCF7 and MDA-MB-231, human hepatoma cell HepG-2, human lung adenocarcinoma cell A549, human gastric cancer cell SGC-7901, human colon cancer cell HCT-116, human ovarian cancer cell line SKOV3, or human lung epithelial normal cell 2B were obtained from Beyotime Biotechnology and utilized to test the cytotoxicity of compounds by MTT assays as previous study. The anti-inflammatory effect of the compounds was detected by the influence on the increase in the level of nitric oxide caused by lipopolysaccharide (LPS) based on the classic Griess method. RAW 264.7 cells (Shanghai Institutes for Biological Science) were seeded in 96-well plates and incubated for 24 h. Then, cells were treated with compounds 29, 29a, 31, and 31a (0-80 μM) for 30 min, followed by co-treatment with LPS ([…]) for another 24 h. The Nitric Oxide assay kit with Griess reagents (Beyotime, Lot: S0021, Shanghai, China) was used to examine cellular supernatant nitrite accumulation, which represents cellular NO levels. The OD value of 540 nm absorbance was detected with a microplate reader. Their authentication in the laboratory was performed regularly based on morphology and gene/protein expression. The tested micro-organisms including Gram-negative bacteria E. coli ATCC 35218 and Pseudomonas aeruginosa ATCC 27853, and Gram-positive bacteria Staphylococcus aureus ATCC 29213 and B. subtilis ATCC 6633, and fungi Candida albicans, Rhizoctonia solani and Aspergillus fumigatus were treated with different concentrations of compounds (1 μM, 10 μM, 100 μM) using Bauer-Kirby disk diffusion method to evaluate the antimicrobial activities.

Series [5] concerns human colon cancer cell HCT-116. Nature of the series: cells. Type of series: cell-based. The following applies: 24 h.
Excerpt: as §2

Series [6] concerns human lung epithelial normal cell 2B. Nature of the series: cells. The following applies: 24 h. Type of series: cell-based.
Excerpt: as §2

Series [7] concerns human acute lymphoblastic leukemia cells K562. Nature of the series: cells. Type of series: cell-based. The settings on record: 24 h.
Excerpt: as §2

Series [8] deals with human gastric cancer cell SGC-7901. Put plainly: cells. Type of series: cell-based. The settings on record: 24 h.
Excerpt: as §2

The test system of series [9] is human hepatoma cell HepG-2. Nature of the series: cells. Type of series: cell-based. The settings on record: 24 h.
Excerpt: as §2

Series [10] has as its system human breast adenocarcinoma cells MCF7. Nature of the series: cells. The following applies: 24 h. Type of series: cell-based.
Excerpt: as §2

Series [11] concerns HepG2 cells. Nature of the series: Extracellular and intracellular compound in HepG2 cells (LC-MS). Type of series: in vitro ADME, human. The following applies: 3 h; for Intracellular compound, Average / Extracellular compound, Average: HepG2, six-well plates, 5 μg/mL (10,000 ng in total), mean of n = 3; for Intracellular compound, Average: cells extracted with MeOH; for Extracellular compound, Average: culture medium extracted with MeOH. As to the method: (§3) Comparing the concentration of compounds (7, 10, 10a) in extracellular and intracellular after the HepG2 cell line dealt with compounds. HepG2 cells were plated in six-well plates at a density of 1.5 × 10^5 cells/well and grew overnight. After cell treated with compounds (5 μg/mL) for 3 h, the compounds were extracted with MeOH for cells culture medium and cells separately as followed the reported method. The compounds were quantified by LC‒MS (5%‒95% ACN in 15 min). The cell numbers of HepG2 with the compounds treatments was determined. […]
(§4) To determine whether the difference in bioactivity of products (with or without Put moiety) is due to variations in cellular uptake, we treated hepatoma cell line HepG2 with compounds 7 (C12 acyl), 10 (C14 acyl), and 10a (C14 acyl and without Put) (Supplementary Fig. 33c). The cells were treated for 3 h, and then culture medium and cells were extracted separately. LC-MS was used to detect and quantify the compounds.
(§5) At lower concentrations (5000 ng/mL, and 10,000 ng in total for each group), and […]
(§6) may be contributing to the differences in antitumor activity (Supplementary Fig. 33b).
(§7) This could be due to differences in the speed of cellu lar uptake or differences in drug metabolism rate, requiring further experimental investigation.

The subject of series [12] is human lung adenocarcinoma cell A549. Nature of the series: MTT cytotoxicity assay, A549. The following applies: for IC50: 24 h. Type of series: cell-based.
Excerpt: as §2

Another series relates to tumor lines. Nature of the series: MTT cytotoxicity assay, statements on the whole panel. Type of series: cell-based, human. The settings on record: MTT assay, panel of tumor cell lines.
Excerpt: as §2

The subject of series [13] is HepG2 cells. Nature of the series: Cell numbers of HepG2 after compound treatment. Type of series: cell-based, human. The following applies: HepG2, 1.5 × 10^5 cells/well plated, compound 5 μg/mL, 3 h; mean of n = 3. As to the method:
as §3, §4, §5, §6, §7

The next series deals with human cells Kasumi. Put plainly: MTT cytotoxicity assay, Kasumi. Type of series: cell-based. The following applies: 24 h.
Excerpt: as §2

For `CCCCCCCCCCCCCC(=O)N[C@H](CCSC)C(=O)N[C@H](CC(N)=O)C(=O)N1CCC[C@H]1C(=O)N[C@H](C(=O)N[C@H](Cc1ccccc1)C(=O)N1CCC[C@H]1C(=O)N[C@@H](Cc1c[nH]c2ccccc12)C(=O)N[C@@H](C(=O)N[C@@H](C)C(=O)N[C@H](C)C(=O)N[C@@H](CO)C(=O)N[C@@H](C)C(=O)NCCCCN)C(C)C)C(C)C` [Compound 10, Glidonin J] (Myristoyl-[dM][dN]PV[dF]PW[dV]A[dA]SA-{NH(CH2)4NH2}), in [1], the solubility in words entry was “easily soluble in water, methanol and acetonitrile”. The “effect on growth of DSM 7029 wild type in words” value in series [2] (compound 0.1 μg/μL, OD600 every hour for 42 h, Bioscreen C) was “weak inhibition of growth; also recorded: obviously inhibit the growth”. In addition, in [2] (control OD600 0.6), the “OD600 of wild type DSM 7029 with addition of compounds” value worked out at 0.4. Further, in [3], the “effect on biofilm formation of DSM 7029 wild type in words” value is reported as “increased biofilm formation”. Also, the “inhibition of native host DSM 7029, inhibition zone method” value in the series with native host DSM 7029 is “no inhibition”. The IC50 is 7.2 ± 0.79 µM in series [4]; above 20 µM in [5]; 11.8 ± 0.15 µM in series [6]; 7.2 ± 0.79 µM in series [7]; above 20 µM in series [8]; 6.68 µM in series [9]. Moreover, the IC50 in series [10] was above 20 µM; in [12] it was 7.15 ± 0.47 µM; in the series with human cells Kasumi, 1.39 µM. The “total quantities (intracellular plus extracellular) in words” value in the series with HepG2 cells [11] (HepG2, 5000 ng/mL, compared to 10a) is given as “lower total quantities”. The “Intracellular compound, Average” value with HepG2 cells [11] is listed as 6.078 ng. Moreover, the “Extracellular compound, Average” value in the series with HepG2 cells [11] was found to be 1078.84 ng. Moreover, in the series on tumor lines, the “cytotoxic / antitumor activity in words” value was “broad-spectrum cytotoxicity”. In addition, the “The cell numbers, Average” value in the series with HepG2 cells [13] is 1303333.

Take `CCCCCCCCCCCCCC(=O)N[C@H](CCSC)C(=O)N[C@H](CC(N)=O)C(=O)N1CCC[C@H]1C(=O)N[C@H](C(=O)N[C@H](Cc1ccccc1)C(=O)N1CCC[C@H]1C(=O)N[C@@H](Cc1c[nH]c2ccccc12)C(=O)N[C@@H](C(=O)N[C@@H](C)C(=O)N[C@H](C)C(=O)N[C@@H](CO)C(=O)N[C@@H](C)C(=O)O)C(C)C)C(C)C` [Compound 10a] (Myristoyl-[dM][dN]PV[dF]PW[dV]A[dA]SA-OH): in [1], the solubility in words result is reported as “soluble only in dimethyl sulfoxide (DMSO)”. Moreover, the IC50 in series [6], in series [9] and in series [12] was above 20 µM each time. The “Intracellular compound, Average” value with HepG2 cells [11] was found to be 11.984 ng. In addition, the “Extracellular compound, Average” value in the series on HepG2 cells [11] was determined as 7245.41 ng. Further, the “cytotoxic / antitumor activity against A549 in words” value in series [12] (MTT assay) is given as “lower than those of 10”.
